The values below come from ChEMBL document CHEMBL3808296, “A combined in silico/in vitro approach unveils common molecular requirements for efficient BVDV RdRp binding of linear aromatic N-polycyclic systems” (Eur J Med Chem, 2016).

A short description of series [1]: Inhibition of His tagged BVDV NS5B Cdelta24 RNA dependent RNA polymerase expressed in Escherichia coli Rosetta DE3 preincubated for 30 mins followed by addition of GTP measured after 120 mins by fluorescence analysis. Details: species or system Bovine viral diarrhea virus 1.
Series [2] can be described thus: Inhibition of His tagged BVDV NS5B Cdelta24 RNA dependent RNA polymerase K263A mutant expressed in Escherichia coli Rosetta DE3 preincubated for 30 mins followed by addition of GTP measured after 120 mins by fluorescence analysis. Details: species or system Bovine viral diarrhea virus 1.
Series [3] can be described thus: Inhibition of HCV RNA-dependent RNA polymerase. Details: species or system Hepacivirus hominis.
The nature of series [4]: Cytotoxicity against mock-infected MDBK cells assessed as reduction in cell viability after 72 hrs by MTT assay. The settings on record: cattle. In kind it is cell-based, Bos taurus.
The nature of series [5]: Inhibition of BVDV RNA-dependent RNA polymerase. Further details: species or system Bovine viral diarrhea virus 1.
Series [6] deals with Bovine viral diarrhea virus 1. As to the kind of experiment: Antiviral activity against BVDV. In kind it is functional, organism-based. The settings on record: Bovine viral diarrhea virus isolates and strains.
The nature of series [7]: Antiviral activity against BVDV NADL infected in MDBK cells assessed as inhibition of virus induced cytopathogenicity after 3 to 4 days by MTT assay. In kind it is functional, cell-based, Bovine viral diarrhea virus 1-NADL. The settings on record: Bovine viral diarrhea virus isolates and strains. For orientation: Protection from cytopathic effect is a common read-out in antiviral testing.

A short description of series [8]: Selectivity index, ratio of CC50 for MDBK cells to EC50 for […] NADL infected in MDBK cells.
In the next series the test system is Coxsackievirus B2. The series is described as follows: Antiviral activity against CVB-2 infected in Vero 76 cells after 3 days by crystal violet staining based plaque reduction assay. In kind it is functional, organism-based. The settings on record: Enterovirus B, Vero 76, 72 h.
Another series has as its system Yellow fever virus. As to the kind of experiment: Antiviral activity against Yellow fever virus 17D infected in BHK21 cells assessed as inhibition of virus induced cytopathogenicity after 3 to 4 days by MTT assay. In kind it is functional, cell-based. The conditions noted are these: BHK-21.
Another series relates to Poliovirus 1. As to the kind of experiment: Antiviral activity against Human poliovirus 1 strain Sabin infected in Vero 76 cells after 2 days by crystal violet staining based plaque reduction assay. In kind it is functional, organism-based. The conditions noted are these: Enterovirus C, Vero 76, 48 h. (In general: Plaques are areas of infected cells; plaque reduction assays count them against a control.)

Series [9] in a line: Cytotoxicity against mock-infected african green monkey Vero 76 cells assessed as reduction in cell viability after 48 to 96 hrs by MTT assay. In kind it is cell-based. The conditions noted are these: chlorocebus sabaeus, mock-infected Vero 76 cells. In general terms: Tetrazolium assays rely on reduction of a dye to a coloured formazan, in cell work by metabolically active cells.

The subject of series [10] is Respiratory syncytial virus. As to the kind of experiment: Antiviral activity against Respiratory syncytial virus A2 infected in Vero 76 cells after 5 days by crystal violet staining based plaque reduction assay. In kind it is functional, organism-based. The conditions noted are these: human respiratory syncytial virus, A2, Vero 76, 120 h.
The subject of series [11] is Mammalian orthoreovirus 1. As to the kind of experiment: Antiviral activity against Reovirus type-1 3651 infected in BHK21 cells assessed as inhibition of virus induced cytopathogenicity after 3 to 4 days by MTT assay. In kind it is functional, cell-based. The settings on record: Mammalian orthoreovirus 1, 3651, BHK-21.
For series [12], the system named is Vesicular stomatitis virus. The series is described as follows: Antiviral activity against Vesicular stomatitis virus Indiana infected in Vero 76 cells after 2 days by crystal violet staining based plaque reduction assay. In kind it is functional, organism-based. The settings on record: Vero 76, 48 h.
Series [13] can be described thus: Cytotoxicity against mock-infected BHK21 cells assessed as reduction in cell viability after 72 hrs by MTT assay. In kind it is cell-based, Mesocricetus auratus, BHK-21. The conditions noted are these: hamster.
The next series concerns Vaccinia virus. The series is described as follows: Antiviral activity against Vaccinia virus Elstree infected in Vero 76 cells after 3 days by crystal violet staining based plaque reduction assay. In kind it is functional, organism-based. The conditions noted are these: Orthopoxvirus vaccinia, Vero 76, 72 h.

The structures appear in SMILES notation. Where only a bound is given, the exact number is not on record here.

As for `O=[N+]([O-])c1c2cccnc2c(Cl)c2[nH]nnc12`, the figures for the IC50 in [1] and in series [2] were 9 µM and 140 µM, respectively.
Take `O=[N+]([O-])c1ccc(-c2nc3cc4cccnc4c(Cl)c3[nH]2)cc1`: the IC50 worked out at 8 µM in series [3] and 0.06 µM in series [5]. Moreover, the CC50 at 72 h in [4] is above 100 µM. The EC50 in series [6] worked out at 1.2 µM.
Turning to `CC(=O)c1ccc(-c2nc3ccncc3[nH]2)cc1`, the IC50 is 11 µM in series [1] and 15 µM in series [2]. For the same compound, the EC50 in series [7] came out at 7 µM.
On to `Nc1c(/N=C/c2ccc([N+](=O)[O-])cc2)cc2cccnc2c1Cl`, for which the IC50 stood at 0.81 µM in series [1] and 1 µM in series [2]. In addition, the 50% effective concentration (EC50) in [7] stood at 1.7 µM.
For the compound `COc1nc2cc3cccnc3c(Cl)c2nc1-c1cccs1`, the half-inhibitory concentration (IC50) in series [1] turned out to be 0.64 µM; in series [2], 0.96 µM. Also, the EC50 in [7] came out at 1.3 µM.
Consider `N#Cc1ccc(-c2nc3cc4cccnc4c(Cl)c3[nH]2)cc1`, for which the values for the IC50 in series [1] and in series [2] were 0.48 µM and 0.75 µM, respectively. For the same compound, the “Ratio CC50/EC50” value in series [8] is on record as above 333.3. The CC50 at 72 h in series [4] is above 100 µM. In addition, the EC50 in series [7] was 0.3 µM.
Consider `O=[N+]([O-])c1ccc(-c2nc3cc4cccnc4c(Cl)c3n2CC2CCCCC2)cc1`, for which the EC50 with Coxsackievirus B2 is above 20 µM; in the series on Yellow fever virus, above 13 µM; with Poliovirus 1, above 20 µM; in [10] it was above 20 µM; in [11] it was at least 16 µM; in series [7] it was 5 µM. Besides, the EC50 (in series [12]; in the series on Vaccinia virus) was above 20 µM throughout. In addition, the 50% cytotoxic concentration (CC50) in series [9] came to 20 µM. The “Ratio CC50/EC50” value in [8] is given as above 6.6. The CC50 at 72 h was found to be 33 µM in series [4] and 16 µM in [13].

One may read the IC50 as the concentration that gives 50% inhibition. By CC50 is commonly meant the concentration giving 50% cytotoxicity. For orientation: EC50 means the midpoint of the concentration-response curve.
